This assay concerns the target T1, PSMA (Homo sapiens, UniProt Q04609).
T1 construct: host or cells: 22Rv1 human prostate cancer cells
In words: Relative binding affinity of DUPA-NIR conjugates with respect to DUPA-FITC on 22Rv1 cells, flow cytometry. The note with it: for Kd: 1 h at 37° C., 100 nM DUPA-FITC; for affinity for PSMA (in words): in vitro binding affinity data. The method, then:
FIG. 3—Relative binding affinities of DUPA-NIR conjugates 1-9 with respect to DUPA-FITC (14). PSMA-positive 22Rv1 human prostate cancer cells were incubated for 1 h at 37° C. in the presence of 100 nM DUPA-FITC with increasing concentrations of DUPA-NIR conjugates. […] Cell bound fluorescence was assayed as using flow cytometry.
FIG. 6—Relative binding affinities of DUPA-NIR conjugates with aromatic amino acids linkers with respect to DUPA-FITC (14). PSMA-positive 22Rv1 human prostate cancer cells were incubated for 1 h at 37° C. in the presence of 100 nM DUPA-FITC with increasing concentrations of DUPA-NIR conjugates. […] Cell bound fluorescence was assayed as using flow cytometry.
FIG. 3 Relative binding affinities of DUPA-NIR conjugates 1-9 with respect to DUPA-FITC (14). PSMA-positive 22Rv1 human prostate cancer cells were incubated for 1 h at 37° C. in the presence of 100 nM DUPA-FITC with increasing concentrations of DUPA-NIR conjugates. […] Cell bound fluorescence was assayed as using flow cytometry.
in vitro studies. […] PSMA-positive 22Rv1 human prostate cancer cells were incubated for 1 h at 37° C. in the presence of 100 nM DUPA-FITC with increasing concentrations of DUPA-NIR conjugates. […] Cell bound fluorescence was assayed as using flow cytometry.
PSMA-positive 22Rv1 human prostate cancer cells were incubated for 1 h at 37° C. in the presence of 100 nM DUPA-FITC with increasing concentrations of DUPA-NIR conjugates. […] Cell bound fluorescence was assayed as using flow cytometry.
FIG. 24: Relative binding affinities of DUPA-NIR conjugates with respect to DUPA-FITC (14). PSMA-positive 22Rv1 human prostate cancer cells were incubated for 1 h at 37° C. in the presence of 100 nM DUPA-FITC with increasing concentrations of DUPA-NIR conjugates. […] Cell bound fluorescence was assayed as using flow cytometry.
PSMA-positive 22Rv1 human prostate cancer cells were incubated for 1 h at 37° C. in the presence of 100 nM DUPA-FITC with increasing concentrations of DUPA-NIR conjugates. […] Cell bound fluorescence was assayed as using flow cytometry
Cancer cells were incubated for 1 h at 37° C. in the presence of 100 nM DUPA-FITC with increasing concentrations of compound 15. […] Cell bound fluorescence was assayed as using flow cytometry.
For orientation: A flow cytometer gives signals particle by particle.

[1] abbreviates: conjugates with variable length spacers.
[2] abbreviates: conjugates with aromatic linkers.
[3] abbreviates: Example 5, variably charged NIR dye.

The values below come from patent US11484607B2, “PSMA-targeted NIR dyes and their uses” (On Target Laboratories, LLC, priority 2015, dated 2022).

T1 sequence (Q04609 whole entry): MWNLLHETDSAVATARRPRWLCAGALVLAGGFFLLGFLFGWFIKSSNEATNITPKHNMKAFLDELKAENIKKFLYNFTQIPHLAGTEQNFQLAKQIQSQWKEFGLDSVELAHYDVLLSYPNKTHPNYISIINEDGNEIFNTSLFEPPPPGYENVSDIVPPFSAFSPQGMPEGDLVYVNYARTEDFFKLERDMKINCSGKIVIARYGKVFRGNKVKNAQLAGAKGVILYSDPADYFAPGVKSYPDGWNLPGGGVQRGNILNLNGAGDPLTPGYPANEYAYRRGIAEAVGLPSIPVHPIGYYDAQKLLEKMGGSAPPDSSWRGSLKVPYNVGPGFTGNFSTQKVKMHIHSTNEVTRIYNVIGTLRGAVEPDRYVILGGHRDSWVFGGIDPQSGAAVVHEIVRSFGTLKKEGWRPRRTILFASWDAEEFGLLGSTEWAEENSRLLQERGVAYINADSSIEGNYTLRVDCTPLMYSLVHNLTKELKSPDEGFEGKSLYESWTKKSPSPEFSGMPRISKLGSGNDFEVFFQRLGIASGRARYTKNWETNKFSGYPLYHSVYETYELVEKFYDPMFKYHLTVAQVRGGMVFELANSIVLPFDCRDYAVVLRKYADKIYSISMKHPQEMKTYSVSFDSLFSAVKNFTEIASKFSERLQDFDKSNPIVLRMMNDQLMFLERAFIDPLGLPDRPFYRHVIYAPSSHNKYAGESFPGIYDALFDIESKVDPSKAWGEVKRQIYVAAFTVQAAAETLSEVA

As usually defined, the Kd is the free concentration of one partner at which half of the binding sites on the other are occupied at equilibrium, for simple one-to-one binding. A higher Kd goes with lower affinity. As for `CC1(C)C(/C=C/C2=C(Oc3ccc(C[C@H](NC(=O)CC[C@H](NC(=O)N[C@@H](CCC(=O)O)C(=O)O)C(=O)O)C(=O)O)cc3)C(=C/C=C3/N(CCCCS(=O)(=O)O)c4ccc(S(=O)(=O)O)cc4C3(C)C)/CCC2)=[N+](CCCCS(=O)(=O)[O-])c2ccc(S(=O)(=O)O)cc21` [Compound 1], the “affinity for PSMA (in words)” value is “low affinity”. Moreover, under setting [1], binding was put at a Kd of 142 nM.

With `CC1(C)C(/C=C/C2=C(Oc3ccc(CCNC(=O)CC[C@H](NC(=O)N[C@@H](CCC(=O)O)C(=O)O)C(=O)O)cc3)C(=C/C=C3/N(CCCCS(=O)(=O)O)c4ccc(S(=O)(=O)O)cc4C3(C)C)/CCC2)=[N+](CCCCS(=O)(=O)[O-])c2ccc(S(=O)(=O)O)cc21` [Compound 2], the “affinity for PSMA (in words)” value is “low affinity”. Under setting [1], binding was put at a Kd of 113 nM.

Turning to `CC1(C)C(/C=C/C2=C(Oc3ccc(C[C@H](NC(=O)C[C@H](NC(=O)CC[C@H](NC(=O)N[C@@H](CCC(=O)O)C(=O)O)C(=O)O)C(=O)O)C(=O)O)cc3)C(=C/C=C3/N(CCCCS(=O)(=O)O)c4ccc(S(=O)(=O)O)cc4C3(C)C)/CCC2)=[N+](CCCCS(=O)(=O)[O-])c2ccc(S(=O)(=O)O)cc21` [Compound 3], the “affinity for PSMA (in words)” value is recorded as “very high affinity”. Besides, the Kd under setting [1] turned out to be 9.71 nM.

On to `CC1(C)C(/C=C/C2=C(Oc3ccc(C[C@H](NC(=O)CCCCCCCNC(=O)[C@H](Cc4ccccc4)NC(=O)CC[C@H](NC(=O)N[C@@H](CCC(=O)O)C(=O)O)C(=O)O)C(=O)O)cc3)C(=C/C=C3/N(CCCCS(=O)(=O)O)c4ccc(S(=O)(=O)O)cc4C3(C)C)/CCC2)=[N+](CCCCS(=O)(=O)[O-])c2ccc(S(=O)(=O)O)cc21` [Compound 5], for which the “affinity for PSMA (in words)” value was “very high affinity”. Under setting [1], the Kd was 12.2 nM.

For `CC1(C)C(/C=C/C2=C(Oc3ccc(C[C@H](NC(=O)[C@H](Cc4ccccc4)NC(=O)[C@H](Cc4ccccc4)NC(=O)CCCCCCCNC(=O)C[C@H](NC(=O)CC[C@H](NC(=O)N[C@@H](CCC(=O)O)C(=O)O)C(=O)O)C(=O)O)C(=O)O)cc3)C(=C/C=C3/N(CCCCS(=O)(=O)O)c4ccc(S(=O)(=O)O)cc4C3(C)C)/CCC2)=[N+](CCCCS(=O)(=O)[O-])c2ccc(S(=O)(=O)O)cc21` [Compound 8], binding under setting [1] was put at a Kd of 23.2 nM.

`CC1(C)C(/C=C/C2=C(Oc3ccc(C[C@H](NC(=O)CCCCCCCNC(=O)CCCCCCCNC(=O)CC[C@H](NC(=O)N[C@@H](CCC(=O)O)C(=O)O)C(=O)O)C(=O)O)cc3)C(=C/C=C3/N(CCCCS(=O)(=O)O)c4ccc(S(=O)(=O)O)cc4C3(C)C)/CCC2)=[N+](CCCCS(=O)(=O)[O-])c2ccc(S(=O)(=O)O)cc21` [Compound 9] displayed a Kd under setting [1] of 17.2 nM.

Under setting [2], `CC1(C)C(/C=C/C2=C(SC[C@H](NC(=O)[C@H](Cc3ccccc3)NC(=O)[C@H](Cc3ccccc3)NC(=O)CCCCCCCNC(=O)CC[C@H](NC(=O)N[C@@H](CCC(=O)O)C(=O)O)C(=O)O)C(=O)O)C(=C/C=C3/N(CCCCS(=O)(=O)O)c4ccc(S(=O)(=O)O)cc4C3(C)C)/CCC2)=[N+](CCCCS(=O)(=O)[O-])c2ccc(S(=O)(=O)O)cc21` [Compound 27] showed an equilibrium dissociation constant (Kd) of 22.2 nM.

In turn, `CC1(C)C(/C=C/C2=C(Oc3ccc(C[C@H](NC(=O)[C@H](Cc4c[nH]cn4)NC(=O)CCCCCCCNC(=O)CC[C@H](NC(=O)N[C@@H](CCC(=O)O)C(=O)O)C(=O)O)C(=O)O)cc3)C(=C/C=C3/N(CCCCS(=O)(=O)O)c4ccc(S(=O)(=O)O)cc4C3(C)C)/CCC2)=[N+](CCCCS(=O)(=O)[O-])c2ccc(S(=O)(=O)O)cc21` [Compound 32] registered a Kd under setting [2] of 32 nM.

For `CC1(C)C(/C=C/C2=C(Oc3ccc(C[C@H](NC(=O)[C@H](Cc4c[nH]c5ccccc45)NC(=O)CCCCCCCNC(=O)CC[C@H](NC(=O)N[C@@H](CCC(=O)O)C(=O)O)C(=O)O)C(=O)O)cc3)C(=C/C=C3/N(CCCCS(=O)(=O)O)c4ccc(S(=O)(=O)O)cc4C3(C)C)/CCC2)=[N+](CCCCS(=O)(=O)[O-])c2ccc(S(=O)(=O)O)cc21` [Compound 33], under setting [2], binding was put at a Kd of 16 nM.

Consider `CC1(C)C(/C=C/C2=C(Oc3ccc(C[C@H](NC(=O)CCCCCCCNC(=O)[C@H](Cc4ccccc4)NC(=O)[C@H](Cc4ccccc4)NC(=O)CCCCCCCNC(=O)CC[C@H](NC(=O)N[C@@H](CCC(=O)O)C(=O)O)C(=O)O)C(=O)O)cc3)C(=C/C=C3/N(CCCCS(=O)(=O)O)c4ccc(S(=O)(=O)O)cc4C3(C)C)/CCC2)=[N+](CCCCS(=O)(=O)[O-])c2ccc(S(=O)(=O)O)cc21` [Compound 34], for which binding under setting [2] was characterised by a dissociation constant (Kd) of 34.9 nM.

Consider `CC1(C)C(/C=C/C2=C(Oc3ccc(C[C@H](NC(=O)[C@H](Cc4ccccc4)NC(=O)CCCCCCCNC(=O)CC[C@H](NC(=O)N[C@@H](CCC(=O)O)C(=O)O)C(=O)O)C(=O)O)cc3)C(=C/C=C3/N(CCCCS(=O)(=O)O)c4ccccc4C3(C)C)/CCC2)=[N+](CCCCS(=O)(=O)[O-])c2ccccc21` [Compound 54], for which, under setting [3], binding was put at a Kd of 2.6 nM.

`CN1/C(=C/C=C2\CCCC(/C=C/C3=[N+](C)c4ccccc4C3(C)C)=C2Oc2ccc(C[C@H](NC(=O)[C@H](Cc3ccccc3)NC(=O)CCCCCCCNC(=O)CC[C@H](NC(=O)N[C@@H](CCC(=O)O)C(=O)O)C(=O)O)C(=O)O)cc2)C(C)(C)c2ccccc21` [Compound 55]: the “affinity for PSMA (in words)” value is on record as “very high affinity”. The dissociation constant (Kd) under setting [3] came out at 7.3 nM.

Consider `CN1/C(=C/C=C2\CCCC(/C=C/C3=[N+](C)c4ccc(S(=O)(=O)[O-])cc4C3(C)C)=C2Oc2ccc(C[C@H](NC(=O)[C@H](Cc3ccccc3)NC(=O)CCCCCCCNC(=O)CC[C@H](NC(=O)N[C@@H](CCC(=O)O)C(=O)O)C(=O)O)C(=O)O)cc2)C(C)(C)c2cc(S(=O)(=O)O)ccc21` [Compound 56], for which the “affinity for PSMA (in words)” value is “very high affinity”. Also, the dissociation constant (Kd) under setting [3] stood at 3.7 nM.

`CC1(C)C(/C=C/C2=C(Oc3ccc(C[C@H](NC(=O)[C@H](Cc4ccccc4)NC(=O)CCCCCCCNC(=O)CC[C@H](NC(=O)N[C@@H](CCC(=O)O)C(=O)O)C(=O)O)C(=O)O)cc3)C(=C/C=C3/N(CCC[N+](C)(C)C)c4ccccc4C3(C)C)/CCC2)=[N+](CCC[N+](C)(C)C)c2ccccc21` [Compound 59] registered a dissociation constant Kd under setting [3] of 60.9 nM.

As for `CC1(C)C(/C=C/C2=C(Oc3ccc(C[C@H](NC(=O)[C@H](Cc4ccccc4)NC(=O)CCCCCCCNC(=O)CC[C@H](NC(=O)N[C@@H](CCC(=O)O)C(=O)O)C(=O)O)C(=O)O)cc3)C(=C/C=C3/N(CCC[N+](C)(C)C)c4ccc(S(=O)(=O)O)cc4C3(C)C)/CCC2)=[N+](CCC[N+](C)(C)C)c2ccc(S(=O)(=O)O)cc21` [Compound 60], under setting [3], the equilibrium dissociation constant (Kd) turned out to be 5.4 nM.

For `CC1(C)C(=CC=C2CCOC(C=CC3=[N+](CCCCS(=O)(=O)[O-])c4ccc(S(=O)(=O)O)cc4C3(C)C)=C2c2ccc(C(=O)NCCNC(=O)C(Cc3ccccc3)NC(=O)CCCCCCCNC(=O)CCC(NC(=O)NC(CCC(=O)O)C(=O)O)C(=O)O)cc2)N(CCCCS(=O)(=O)O)c2ccc(S(=O)(=O)O)cc21` (stereo not drawn) [Compound 62], the “affinity for PSMA (in words)” value is recorded as “low affinity”.

`CC1(C)C(=CC=C2CCCC(C=CC3=[N+](CCCCS(=O)(=O)[O-])c4ccccc4C3(C)C)=C2Oc2ccc(CC(NC(=O)C(CCCNC(=N)N)NC(=O)C(Cc3ccccc3)NC(=O)CCCCCCCNC(=O)CCC(NC(=O)NC(CCC(=O)O)C(=O)O)C(=O)O)C(=O)O)cc2)N(CCCCS(=O)(=O)O)c2ccccc21` (stereo not drawn) [Compound 65]: the “affinity for PSMA (in words)” value is “low affinity”.

With `CC1(C)C(=CC=C2CCCC(C=CC3=[N+](CCCCS(=O)(=O)[O-])c4ccccc4C3(C)C)=C2Oc2ccc(CC(NC(=O)C(CCCNC(=N)N)NC(=O)C(CCCNC(=N)N)NC(=O)CCCCCCCNC(=O)CCC(NC(=O)NC(CCC(=O)O)C(=O)O)C(=O)O)C(=O)O)cc2)N(CCCCS(=O)(=O)O)c2ccccc21` (stereo not drawn) [Compound 66], the “affinity for PSMA (in words)” value is on record as “low affinity”.
